Experimental data published in article PMC10296281 (2023).

Assays:
Experiment in all cases: bio-layer interferometry, 1:1 local fit
[1] = test system: Sequence 1 (original aptamer, 1 to 80) (DNA, aptamer) AGCAGCACAGAGGTCAGATGACTTCAGTGAGTTGTCCCACGGTCGGCGAGTCGGTGGTAGCCTATGCGTGCTACCGTGAA; conditions: 100 mM NaCl, 5 mM KCl, 2 mM MgCl2, 1 mM CaCl2; 20 mM Tris-HCl, 0.02 Tween 20, pH 7.6; R2 0.993
[2] = test system: Sequence 2 (6 to 80) (DNA, aptamer) CACAGAGGTCAGATGACTTCAGTGAGTTGTCCCACGGTCGGCGAGTCGGTGGTAGCCTATGCGTGCTACCGTGAA; conditions: 100 mM NaCl, 5 mM KCl, 2 mM MgCl2, 1 mM CaCl2; 20 mM Tris-HCl, 0.02 Tween 20, pH 7.6; R2 0.973
[3] = test system: Sequence 3 (1 to 75) (DNA, aptamer) AGCAGCACAGAGGTCAGATGACTTCAGTGAGTTGTCCCACGGTCGGCGAGTCGGTGGTAGCCTATGCGTGCTACC; conditions: 100 mM NaCl, 5 mM KCl, 2 mM MgCl2, 1 mM CaCl2; 20 mM Tris-HCl, 0.02 Tween 20, pH 7.6; R2 0.946
[4] = test system: Sequence 4 (6 to 75) (DNA, aptamer) CACAGAGGTCAGATGACTTCAGTGAGTTGTCCCACGGTCGGCGAGTCGGTGGTAGCCTATGCGTGCTACC; conditions: 100 mM NaCl, 5 mM KCl, 2 mM MgCl2, 1 mM CaCl2; 20 mM Tris-HCl, 0.02 Tween 20, pH 7.6; R2 0.945
[5] = test system: Sequence 5 (21 to 80) (DNA, aptamer) ACTTCAGTGAGTTGTCCCACGGTCGGCGAGTCGGTGGTAGCCTATGCGTGCTACCGTGAA; conditions: 100 mM NaCl, 5 mM KCl, 2 mM MgCl2, 1 mM CaCl2; 20 mM Tris-HCl, 0.02 Tween 20, pH 7.6; R2 0.924
[6] = test system: Sequence 6 (1 to 60) (DNA, aptamer) AGCAGCACAGAGGTCAGATGACTTCAGTGAGTTGTCCCACGGTCGGCGAGTCGGTGGTAG; conditions: 100 mM NaCl, 5 mM KCl, 2 mM MgCl2, 1 mM CaCl2; 20 mM Tris-HCl, 0.02 Tween 20, pH 7.6; R2 0.905
[7] = test system: Sequence 7 (21 to 60) (DNA, aptamer) ACTTCAGTGAGTTGTCCCACGGTCGGCGAGTCGGTGGTAG; conditions: 100 mM NaCl, 5 mM KCl, 2 mM MgCl2, 1 mM CaCl2; 20 mM Tris-HCl, 0.02 Tween 20, pH 7.6; R2 0.882
[8] = test system: Sequence 8 (31 to 80) (DNA, aptamer) GTTGTCCCACGGTCGGCGAGTCGGTGGTAGCCTATGCGTGCTACCGTGAA; conditions: 100 mM NaCl, 5 mM KCl, 2 mM MgCl2, 1 mM CaCl2; 20 mM Tris-HCl, 0.02 Tween 20, pH 7.6; R2 0.853
[9] = test system: Sequence 9 (1 to 50) (DNA, aptamer) AGCAGCACAGAGGTCAGATGACTTCAGTGAGTTGTCCCACGGTCGGCGAG; conditions: 100 mM NaCl, 5 mM KCl, 2 mM MgCl2, 1 mM CaCl2; 20 mM Tris-HCl, 0.02 Tween 20, pH 7.6; R2 0.914
[10] = test system: Sequence 10 (31 to 50) (DNA, aptamer) GTTGTCCCACGGTCGGCGAG; conditions: 100 mM NaCl, 5 mM KCl, 2 mM MgCl2, 1 mM CaCl2; 20 mM Tris-HCl, 0.02 Tween 20, pH 7.6; R2 0.699 (poor fit)
[11] = test system: Sequence 11 (41 to 80) (DNA, aptamer) GGTCGGCGAGTCGGTGGTAGCCTATGCGTGCTACCGTGAA; conditions: 100 mM NaCl, 5 mM KCl, 2 mM MgCl2, 1 mM CaCl2; 20 mM Tris-HCl, 0.02 Tween 20, pH 7.6; R2 0.757

Kd [1]: 704 nM
Kd [2]: 877 nM
Kd [3]: 645 nM
Kd [4]: 661 nM
Kd [5]: 1712 nM
Kd [6]: 4014 nM
Kd [7]: 370 nM
Kd [8]: 153 nM
Kd [9]: 92 nM
Kd [10]: 3109 nM
Kd [11]: 426 nM
SMILES: O=C(N[C@H](CO)[C@H](O)c1ccc([N+](=O)[O-])cc1)C(Cl)Cl
